# Experimental data as given in patent US20220389515A1, “USE OF BIOMARKERS TO PREDICT CLINICAL SENSITIVITY TO 2-(4-CHLOROPHENYL)-N-((2-(2,6-DIOXOPIPERIDIN-3-YL)-1-OXOISOINDOLIN-5-YL)METHYL)-2,2-DIFLUOROACETAMIDE” (priority 2019, published 2022).
# What was measured:
# [1] = test system: AML cell lines; test: Cell proliferation assay (CTG) in AML cell lines, 72 hours; format: cell-based, human; conditions: 11 AML cell lines, Day 3
# Experimental: On Day 3, cell proliferation was assessed by the Cell-Titer Glo (CTG) assay.
# For cell proliferation assays, human cancer cell lines cultured in the growth medium recommended by the vendor (as described above) were seeded into black 384-well plates containing DMSO or test compounds. The seeding density of each cell line was optimized to allow for cell growth in the linear growth phase during a 3-day culture period. To test the compounds' effect on cell proliferation in AML cell lines, 5,000 to 10,000 cells per well in 200 L complete culture media were seeded into black 96-well plates containing DMSO or test compounds. After 72 hours, cell proliferation was assessed using the CTG assay according to the manufacturer's instructions. […] Relative cell proliferation was normalized against cell growth values on day 4. The growth inhibitory curve was processed and graphed using GraphPad Prism Version 7 (P<0.05, unpaired two-sided t-test, is considered as significant).
# [2] = molecular target: T1, cereblon to IKZF1 (Homo sapiens, UniProt Q96SW2); test: Cereblon binding assay with cell extracts (anti-HA immunoprecipitation), IKZF1; conditions: wild-type FLAG-HA-CRBN; compound added directly into the binding assay
# T1 construct: expressed in transfected cells; host or cells: 293FT CRBN-/- cells (transient transfection; cell extracts, anti-HA immunoprecipitation)
# T1 sequence (Q96SW2 whole entry): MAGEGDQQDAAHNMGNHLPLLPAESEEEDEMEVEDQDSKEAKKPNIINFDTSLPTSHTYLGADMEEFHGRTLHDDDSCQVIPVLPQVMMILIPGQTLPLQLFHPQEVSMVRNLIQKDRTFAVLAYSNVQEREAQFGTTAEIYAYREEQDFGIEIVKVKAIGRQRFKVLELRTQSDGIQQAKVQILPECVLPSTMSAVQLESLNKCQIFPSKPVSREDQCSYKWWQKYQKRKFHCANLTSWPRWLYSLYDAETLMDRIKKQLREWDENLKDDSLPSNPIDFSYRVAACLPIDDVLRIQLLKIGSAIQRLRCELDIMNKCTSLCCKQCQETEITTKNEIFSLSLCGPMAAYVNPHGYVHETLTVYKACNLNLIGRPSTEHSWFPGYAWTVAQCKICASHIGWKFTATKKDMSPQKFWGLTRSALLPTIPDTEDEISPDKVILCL
# Source text: FIG. 3A illustrates FLAG-HA tagged cereblon wild-type (FLAG-HA-CRBN) or Y384A/W386A mutant (FLAG-HA-YWAA) produced in 293FT CRBN−/− cells was used to capture V5 tagged GSPT1 (GSPT1-V5) and V5 tagged IKZF1 (IKZF1-V5) transiently expressed in 293FT CRBN−/− cells. […] FIG. 3B illustrates the surface representation of GSPT1 in complex with cereblon, DDB1 and Compound D, with DDB1 shown in purple, cereblon in blue, and GSPT1 in orange. The position of Compound D is shown with a white arrow. FIG. 3C illustrates the Fo-Fc omit electron density (green mesh) for Compound D (yellow sticks) contoured at 3.06. […] Hydrogen bond interactions between cereblon and the GPST1 β-hairpin are shown as yellow dashes. FIG. 3E illustrates details of the binding interface between cereblon and GSPT1. Compound D is represented as yellow sticks. Predicted polar interactions between Compound D and cereblon are shown as yellow dashes. FIG. 3F illustrates the immunoblot analysis of U937 parental cells or cells stably expressing HA-GSPT1-G575N. Cells were treated with DMSO or Compound D at the indicated concentrations. FIGS. 3G and 311 illustrate the immunoblot analysis (left panel) and cell proliferation (right panel) of MOLM-13 (FIG. 3G) and OCI-AML2 (FIG. 311) parental cells and cells stably expressing HA tagged GSPT1-G575N. Cells were treated with DMSO or Compound D at indicated concentrations.
# [3] = test system: U937 Cas9 cell lines; test: Cell proliferation assay (CTG, 5 days) in U937 cells after RNP electroporation knockout; format: cell-based, human
# Source text: Next, the roles of additional negative regulators of mTOR were studied. To knockout the studied genes, an electroporation-based method was used where a ribonucleoprotein (RNP) consisting of the Cas9 protein and gene-targeting gRNA was directly delivered to the U937 cells. A crRNA-tracrRNA duplex was first prepared consisting of the crRNA with a 20 nt sequence specific to each target gene and the universal tracrRNA to guide the Cas9 nuclease to the genomic locus. The sgRNA sequences targeting CRBN, ATF4, GCN1, GCN2, DDIT4, TSC1, TSC2, or non-targeting (NT-1) and non-coding (NC-8) controls were selected from the Cellecta sgRNA library. After pre-coupling the Cas9 enzyme to the crRNA-tracrRNA duplex, the complex was mixed with one million U937 cells per sample in nucleofection solution (4D-Nucleofector X kit SE; Lonza). Cells were electroporated in a 4D nucleofector according to the manufacturer's instructions and plated into complete cell culture media.
# Then a cell proliferation assay was performed. Compound D dissolved in DMSO was injected into 96-well cell culture plates using a HP D300 digital dispenser in triplicate for each final Compound D concentration. […] After 5 days, cell proliferation was assessed using CTG (CellTiter-Glo) according to the manufacturer's instructions to assess the effects of Compound D on proliferation of each cell line.
smiles,measurement,setting,value
"O=C1CCC(N2Cc3cc(CNC(=O)C(F)(F)c4ccc(Cl)cc4)ccc3C2=O)C(=O)N1 (stereo not shown) [Compound D, 2-(4-chlorophenyl)-N-((2-(2,6-dioxopiperidin-3-yl)-1-oxoisoindolin-5-yl)methyl)-2,2-difluoroacetamide]",anti-proliferative activity,[1],potent anti-proliferative activity in 10 out of 11 AML cell lines
same,binding of cereblon to IKZF1,[2],not IKZF1
same,"anti-proliferative effects after depletion of GCN2, ATF4, GCN1, CRBN, DDIT4, TSC1, TSC2",[3]; U937,diminished this effect
same,anti-proliferative effects in control cells,[3]; U937 parental and non-coding (NC-8) controls,dose-dependent anti-proliferative effects
